Patent publication US20250353873A1, “COMPOUNDS AND METHODS FOR MODULATING APOE EXPRESSION” (Ionis Pharmaceuticals, Inc., priority 2024, published 2025)
Strand notation (5' to 3'): a small letter for the sugar, then the base; units joined by * are phosphorothioate-linked, units joined directly phosphodiester-linked; [ ] holds rarer units or linkages, { } end groups; capitals alone tell only the bases. [ms] = mesyl phosphoramidate linkage; k = constrained ethyl (cEt); [5mC] = 5-methylcytosine; d = 2'-deoxy (DNA)

Columns and labels:
[1] = test system: human APOE RNA; assay: Activity in APOE C57BL/6NTac-Apoeem7250 knock-in mice, single ICV bolus, 8 weeks (Example 11); assay type: in vivo
Method in brief: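 Cortical and spinal cord human APOE RNA quantified by RT-qPCR 8 weeks after a single 300 μg ICV dose in knock-in mice, Ppia-normalized. Values are percent of levels in PBS-treated animals.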

[2] = test system: human APOE RNA; assay: Activity in APOE C57BL/6NTac-Apoeem7250 knock-in mice, single ICV bolus, 16 weeks (Example 12); assay type: in vivo; conditions: single ICV bolus 300 μg, 16 weeks post treatment, normalized to mouse Ppia
Method in brief: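 A single 300 μg intracerebroventricular dose was given, with PBS-treated mice as reference; cortical and spinal cord tissue was taken 16 weeks later. RT-qPCR quantified human APOE RNA, Ppia-normalized, expressed relative to PBS animals (% control).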

[3] = test system: human APOE RNA; assay: Dose-dependent inhibition of human APOE RNA in differentiated SH-SY5Y cells, free uptake, 5 days (Example 5); assay type: cell-based
Method: Modified oligonucleotides selected from the examples above were tested at various doses in differentiated SH-SY5Y cells. The modified oligonucleotides were tested in a series of experiments that had the same culture conditions.
Differentiated SH-SY5Y cells plated at a density of 10,000 cells per well were treated by free uptake with various concentrations of modified oligonucleotide as specified in the tables below. […] APOE RNA levels were measured using the human primer probe set RTS3073 (described herein above). APOE RNA levels were normalized to human PPIA. Human PPIA was amplified using human primer probe set mk_cycloA_2nd (described herein above). Results are presented as percent APOE RNA, relative to the amount of APOE RNA in untreated control cells (% UTC). The half maximal inhibitory concentration (IC50) of each modified oligonucleotide was calculated in GraphPad Prism 10 (GraphPad Software, San Diego, CA) and is also presented in the tables below.

[4] = test system: human APOE RNA; assay: Activity in APOE C57BL/6NTac-Apoeem7250 knock-in mice, single ICV bolus, 4 weeks (Example 10); assay type: in vivo; conditions: single ICV bolus 300 μg, 4 weeks post treatment, normalized to mouse Ppia
Method in brief: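 Human APOE RNA, quantified by real-time RT-PCR with RTS3073 and normalized to mouse Ppia, was read in cortical brain and spinal cord 4 weeks post dosing. Dosing was a single ICV bolus of 300 μg per knock-in mouse; values are % of PBS-treated animals.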

[5] = test system: human APOE RNA; assay: Activity in APOE C57BL/6NTac-Apoeem7250 knock-in mice, single ICV bolus, 20 weeks (Example 13); assay type: in vivo; conditions: single ICV bolus 300 μg, 20 weeks post treatment, normalized to mouse Ppia
Method in brief: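 Cortical and spinal cord RNA was assayed by real-time RT-PCR for human APOE, normalized to mouse Ppia and reported as percent of PBS controls. Tissue was taken twenty weeks after one 300 μg intracerebroventricular bolus in APOE knock-in mice, 4 per group.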

[6] = test system: human APOE RNA; assay: Dose-dependent inhibition of human APOE RNA in HepG2 cells, electroporation, 50,000 cells per well, RT-PCR normalized to GAPDH (Example 4, Tables 8-10); assay type: cell-based; conditions: HepG2 cells, electroporation, Table 8
Method in brief: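 Readout is percent APOE RNA versus untreated controls, measured by RT-PCR (primer probe set RTS3073) and normalized to human GAPDH. Modified oligonucleotides were delivered by electroporation at varying doses into HepG2 cells plated at 50,000 per well.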

“^mCksTksTksGdzGdzTdzGdzAdzAdzTds^mCdsTdsTdsTdsAdsTdsTksAksAdzAk (antisense k[5mC]*kT*kT*dG[ms]dG[ms]dT[ms]dG[ms]dA[ms]dA[ms]dT*d[5mC]*dT*dT*dT*dA*dT*kT*kA*dA[ms]kA) [Compound No. 1785602]” was tested, and the “reduction of human APOE RNA in the cortex” value ([1]; APOE knock-in mouse model, 8 weeks post administration, assay of Example 11) was 73%, the “APOE RNA (% control) Cortex” value ([1]; cortex, single ICV bolus 300 μg, 8 weeks post treatment, normalized to mouse Ppia) was 27 % control and the “APOE RNA (% control) Spinal Cord” value ([1]; spinal cord, single ICV bolus 300 μg, 8 weeks post treatment, normalized to mouse Ppia) was 26 % control. The “APOE RNA (% control) Cortex” value ([2]; cortex) was 38 % control, the “APOE RNA (% control) Spinal Cord” value ([2]; spinal cord) was 20 % control and the “APOE RNA (% UTC)” value ([3]; 5 nM, 5 days (Table 13)) was 74 % UTC. For the same substance, the “APOE RNA (% UTC)” value ([3]; 5 nM, 5 days (Table 14)) was 84 % UTC, the “APOE RNA (% UTC)” value ([3]; 13 nM, 5 days (Table 13)) was 60 % UTC and the “APOE RNA (% UTC)” value ([3]; 13 nM, 5 days (Table 14)) was 106 % UTC. The “APOE RNA (% UTC)” value ([3]; 33 nM, 5 days (Table 13)) was 64 % UTC, the “APOE RNA (% UTC)” value ([3]; 33 nM, 5 days (Table 14)) was 83 % UTC and the “APOE RNA (% UTC)” value ([3]; 82 nM, 5 days (Table 13)) was 49 % UTC. For the same substance, the “APOE RNA (% UTC)” value ([3]; 82 nM, 5 days (Table 14)) was 69 % UTC, the “APOE RNA (% UTC)” value ([3]; 205 nM, 5 days (Table 13)) was 40 % UTC and the “APOE RNA (% UTC)” value ([3]; 205 nM, 5 days (Table 14)) was 42 % UTC. The “APOE RNA (% UTC)” value ([3]; 512 nM, 5 days (Table 13)) was 30 % UTC, the “APOE RNA (% UTC)” value ([3]; 512 nM, 5 days (Table 14)) was 32 % UTC and the “APOE RNA (% UTC)” value ([3]; 1,280 nM, 5 days (Table 13)) was 36 % UTC. The “APOE RNA (% UTC)” value ([3]; 1,280 nM, 5 days (Table 14)) was 26 % UTC, the “APOE RNA (% UTC)” value ([3]; 3,200 nM, 5 days (Table 13)) was 32 % UTC and the “APOE RNA (% UTC)” value ([3]; 3,200 nM, 5 days (Table 14)) was 19 % UTC. For the same substance, the “APOE RNA (% UTC)” value ([3]; 8,000 nM, 5 days (Table 13)) was 15 % UTC, the “APOE RNA (% UTC)” value ([3]; 8,000 nM, 5 days (Table 14)) was 10 % UTC and the “APOE RNA (% UTC)” value ([3]; 20,000 nM, 5 days (Table 13)) was 6 % UTC. For the same substance, the “APOE RNA (% UTC)” value ([3]; 20,000 nM, 5 days (Table 14)) was 8 % UTC, the IC50 ([3]; 5 days (Table 13)) was 0.09 µM and the IC50 ([3]; 5 days (Table 14)) was 0.23 µM. The “APOE RNA (% control) Cortex” value ([4]; cortex) was 34 % control, the “APOE RNA (% control) Spinal Cord” value ([4]; spinal cord) was 33 % control and the “APOE RNA (% control) Cortex” value ([5]; cortex) was 53 % control. The “APOE RNA (% control) Spinal Cord” value ([5]; spinal cord) was 28 % control, the “APOE RNA (% UTC) 5 nM” value ([6]; 24-hour treatment, 5 nM) was 96 % UTC and the “APOE RNA (% UTC) 13 nM” value ([6]; 24-hour treatment, 13 nM) was 109 % UTC. The “APOE RNA (% UTC) 33 nM” value ([6]; 24-hour treatment, 33 nM) was 83 % UTC, the “APOE RNA (% UTC) 82 nM” value ([6]; 24-hour treatment, 82 nM) was 64 % UTC and the “APOE RNA (% UTC) 205 nM” value ([6]; 24-hour treatment, 205 nM) was 55 % UTC. The “APOE RNA (% UTC) 512 nM” value ([6]; 24-hour treatment, 512 nM) was 27 % UTC, the “APOE RNA (% UTC) 1,280 nM” value ([6]; 24-hour treatment, 1,280 nM) was 18 % UTC and the “APOE RNA (% UTC) 3,200 nM” value ([6]; 24-hour treatment, 3,200 nM) was 11 % UTC. For the same substance, the “APOE RNA (% UTC) 8,000 nM” value ([6]; 24-hour treatment, 8,000 nM) was 8 % UTC, the “APOE RNA (% UTC) 20,000 nM” value ([6]; 24-hour treatment, 20,000 nM) was 4 % UTC and the IC50 ([6]; reduction of human APOE RNA, 24-hour treatment) was 0.22 µM.
